Experimental data from patent US11542255B2, “Sulfonylureas and sulfonylthioureas as NLRP3 inhibitors” (Inflazome Limited, priority 2017, dated 2023).
Where a name gives a salt, the structure may show the parent alone.

Assays:
NLRP3 [1] = biological target: T1, NLRP3 (Homo sapiens, UniProt Q96P20); assay: Human whole blood IL1β release assay (LPS + nigericin, AlphaLisa IL-1β); type: cell-based; set-up: Human whole blood in Li-heparin tubes was obtained from healthy donors from a volunteer donor panel; from tissue; host or cells: human whole blood from healthy donors; conditions: NLRP3 inhibitory activity, 1 μg/ml LPS, 10 μM nigericin, IL-1β release, read-out: HWB IC50
T1 sequence (Q96P20 whole entry): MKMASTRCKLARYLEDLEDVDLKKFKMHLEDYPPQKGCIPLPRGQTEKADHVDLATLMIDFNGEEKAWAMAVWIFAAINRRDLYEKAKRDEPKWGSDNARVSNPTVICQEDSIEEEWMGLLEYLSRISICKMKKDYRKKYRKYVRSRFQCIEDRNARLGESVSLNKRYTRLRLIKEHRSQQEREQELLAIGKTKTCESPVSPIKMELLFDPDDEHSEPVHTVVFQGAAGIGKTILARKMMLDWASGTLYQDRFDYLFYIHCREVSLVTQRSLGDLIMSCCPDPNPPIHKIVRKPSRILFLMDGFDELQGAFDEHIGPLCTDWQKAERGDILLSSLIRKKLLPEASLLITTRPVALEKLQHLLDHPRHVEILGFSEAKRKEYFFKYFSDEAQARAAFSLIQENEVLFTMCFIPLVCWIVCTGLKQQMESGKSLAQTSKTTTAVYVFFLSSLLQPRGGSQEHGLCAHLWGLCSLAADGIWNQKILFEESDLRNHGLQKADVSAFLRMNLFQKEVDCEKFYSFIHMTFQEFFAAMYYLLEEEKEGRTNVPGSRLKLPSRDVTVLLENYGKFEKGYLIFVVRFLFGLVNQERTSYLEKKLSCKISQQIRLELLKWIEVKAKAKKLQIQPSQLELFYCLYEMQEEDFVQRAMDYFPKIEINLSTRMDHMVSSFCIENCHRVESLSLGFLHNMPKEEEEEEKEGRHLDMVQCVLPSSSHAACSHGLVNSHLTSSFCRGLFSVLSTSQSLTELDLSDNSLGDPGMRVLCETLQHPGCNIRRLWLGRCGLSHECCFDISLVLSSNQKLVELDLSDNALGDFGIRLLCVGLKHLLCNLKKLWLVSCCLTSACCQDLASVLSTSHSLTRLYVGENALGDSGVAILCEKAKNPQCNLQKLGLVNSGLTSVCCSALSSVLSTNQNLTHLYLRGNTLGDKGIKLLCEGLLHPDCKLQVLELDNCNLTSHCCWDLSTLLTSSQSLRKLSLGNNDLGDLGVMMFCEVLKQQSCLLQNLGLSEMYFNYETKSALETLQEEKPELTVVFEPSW
Experimental: For systemic delivery, the ability to inhibit NLRP3 when the compounds are present within the bloodstream is of great importance. For this reason, the NLRP3 inhibitory activity of a number of compounds in human whole blood was investigated in accordance with the following protocol.
Human whole blood in Li-heparin tubes was obtained from healthy donors from a volunteer donor panel. • 1. Plate out 80 μl of whole blood containing 1 μg/ml of LPS in 96-well, clear bottom cell culture plate (Corning #3585) • 2. Add 10 μl compound (8 points half-log dilution with 10 μM top dose) or vehicle (DMSO 0.1% FAC) to the appropriate wells • 3. Incubate for 3 hrs at 37° C., 5% CO2 • 4. Add 10 μl Nigericin (Sigma #N7143) (10 μM FAC) to all wells • 5. Incubate for 1 hr at 37° C., 5% CO2 • 6. At the end of the incubation period, spin plates at 300×g for 5 mins to pellet cells and remove 20 μl of supernatant and add to 96-well v-bottom plates for IL-1β analysis (note: these plates containing the supernatants can be stored at −80° C. to be analysed at a later date) • 7. IL-1β was measured according to the manufacturer protocol (Perkin Elmer-AlphaLisa IL-1β Kit AL220F-5000) • 8. IC50 data is fitted to a non-linear regression equation (log inhibitor vs response-variable slope 4-parameters)

NLRP3 [2] = biological target: T1, NLRP3; assay: THP-1 cells pyroptosis assay (LPS + nigericin, resazurin readout); type: cell-based; set-up: Seed THP-1 cells (25,000 cells/well) containing 1.0 μg/ml LPS in 40 μl of RPMI medium; host or cells: THP-1 cells; conditions: NLRP3 inhibitory activity, 1.0 μg/ml LPS, 5 μM nigericin
Experimental: THP-1 cells (ATCC #TIB-202) were grown in RPMI containing L-glutamine (Gibco #11835) supplemented with 1 mM sodium pyruvate (Sigma #S8636) and penicillin (100 units/ml)/streptomycin (0.1 mg/ml) (Sigma #P4333) in 10% Fetal Bovine Serum (FBS) (Sigma #F0804). The cells were routinely passaged and grown to confluency (˜10^6 cells/ml). On the day of the experiment, THP-1 cells were harvested and resuspended into RPMI medium (without FBS). The cells were then counted and viability (>90%) checked by Trypan blue (Sigma #T8154). Appropriate dilutions were made to give a concentration of 625,000 cells/ml. To this diluted cell solution was added LPS (Sigma #L4524) to give a […] Final Assay Concentration (FAC). 40 μl of the final preparation was aliquoted into each well of a 96-well plate. The plate thus prepared was used for compound screening.
The following method step-by-step assay was followed for compound screening. • 1. Seed THP-1 cells (25,000 cells/well) containing 1.0 μg/ml LPS in 40 μl of RPMI medium (without FBS) in 96-well, black walled, clear bottom cell culture plates coated with poly-D-lysine (VWR #734-0317) • 2. Add 5 μl compound (8 points half-log dilution, with 10 μM top dose) or vehicle (DMSO 0.1% FAC) to the appropriate wells • 3. Incubate for 3 hrs at 37° C. in 5% CO2 • 4. Add 5 μl nigericin (Sigma #N7143) (FAC 5 μM) to all wells • 5. Incubate for 1 hr at 37° C. and 5% CO2 • 6. At the end of the incubation period, spin plates at 300×g for 3 mins and remove supernatant • 7. Then add 50 μl of resazurin (Sigma #R7017) (FAC 100 μM resazurin in RPMI medium without FBS) and incubate plates for a further 1-2 hrs at 37° C. and 5% CO2 • 8. Plates were read in an Envision reader at Ex 560 nm and Em 590 nm • 9. IC50 data is fitted to a non-linear regression equation (log inhibitor vs response-variable slope 4-parameters)

IC50 (NLRP3 [1]) | IC50 (NLRP3 [2]) | SMILES
400 to 800 nM | 40 to 160 nM | CC1CN(C(C)c2cc(S(=O)(=O)NC(=O)Nc3c4c(cc5c3CCC5)CCC4)nn2C)C1 (stereo not drawn) [Example 29, N-((1,2,3,5,6,7-Hexahydro-s-indacen-4-yl)carbamoyl)-1-methyl-5-(1-(3-methylazetidin-1-yl)ethyl)-1H-pyrazole-3-sulfonamide]
< 400 nM | 160 to 640 nM | COCCN(CCOC)C(=O)c1cc(S(=O)(=O)NC(=O)Nc2c(-c3ccnc(OC)c3)ccc3c2CCC3)nn1C [Example 175, N,N-Bis(2-methoxyethyl)-3-(N-((5-(2-methoxypyridin-4-yl)-2,3-dihydro-1H-inden-4-yl)carbamoyl)sulfamoyl)-1-methyl-1H-pyrazole-5-carboxamide, Sodium Salt]
< 400 nM | < 40 nM | COc1cc(-c2cc(F)cc(C(C)C)c2NC(=O)NS(=O)(=O)c2cc(CN(C)C)n(C)n2)ccn1 [Example 48, 5-((Dimethylamino)methyl)-N-((4-fluoro-2-isopropyl-6-(2-methoxypyridin-4-yl)phenyl)carbamoyl)-1-methyl-1H-pyrazole-3-sulfonamide]
3200 to 10000 nM | < 40 nM | CN(C)Cc1cc(S(=O)(=O)NC(=O)Nc2c3c(cc4c2CCC4)CCC3)nn1C(C)(C)C [Example 37, 1-(tert-Butyl)-5-((dimethylamino)methyl)-N-((1,2,3,5,6,7-hexahydro-s-indacen-4-yl)carbamoyl)-1H-pyrazole-3-sulfonamide]
800 to 1600 nM | 160 to 640 nM | CC(C)c1cc(S(=O)(=O)NC(=O)Nc2c3c(cc4c2CCC4)CCC3)nn1CCN(C)C [Example 6, 1-(2-(Dimethylamino)ethyl)-N-((1,2,3,5,6,7-hexahydro-s-indacen-4-yl)carbamoyl)-5-isopropyl-1H-pyrazole-3-sulfonamide]
400 to 800 nM | 40 to 160 nM | COCCN(CCO)C(=O)c1cc(S(=O)(=O)NC(=O)Nc2c3c(cc4c2CCC4)CCC3)nn1C [Example 102, 3-(N-((1,2,3,5,6,7-Hexahydro-s-indacen-4-yl)carbamoyl)sulfamoyl)-N-(2-hydroxyethyl)-N-(2-methoxyethyl)-1-methyl-1H-pyrazole-5-carboxamide, Partial ammonium Salt]
400 to 800 nM | 160 to 640 nM | Cc1cc(-c2cc(F)cc(C(C)C)c2NC(=O)NS(=O)(=O)c2cc(CN(C)C)n(C)n2)n(C)n1 [Example 40, N-((2-(1,3-Dimethyl-1H-pyrazol-5-yl)-4-fluoro-6-isopropylphenyl)carbamoyl)-5-((dimethylamino)methyl)-1-methyl-1H-pyrazole-3-sulfonamide]
3200 to 10000 nM | 40 to 160 nM | CC(C)n1nc(S(=O)(=O)NC(=O)Nc2c3c(cc4c2CCC4)CCC3)cc1CN(C)CC(F)(F)F [Example 96, N-((1,2,3,5,6,7-Hexahydro-s-indacen-4-yl)carbamoyl)-1-isopropyl-5-((methyl(2,2,2-trifluoroethyl)amino)methyl)-1H-pyrazole-3-sulfonamide]
1600 to 3200 nM | 160 to 640 nM | CN1CCn2nc(S(=O)(=O)NC(=O)Nc3c4c(cc5c3CCC5)CCC4)cc2C1 [Example 5, N-((1,2,3,5,6,7-Hexahydro-s-indacen-4-yl)carbamoyl)-5-methyl-4,5,6,7-tetrahydropyrazolo[1,5-a]pyrazine-2-sulfonamide]
< 400 nM | 640 to 2560 nM | CC(C)c1cc(F)cc(-c2cnn(C)c2)c1NC(=O)NS(=O)(=O)c1cc(C(=O)N(C)C)n(C)n1 [Example 128, 3-(N-((4-Fluoro-2-isopropyl-6-(1-methyl-1H-pyrazol-4-yl)phenyl)carbamoyl)sulfamoyl)-N,N,1-trimethyl-1H-pyrazole-5-carboxamide, Sodium Salt]

The next lines start with the compound.

SMILES | IC50 (NLRP3 [1]) | IC50 (NLRP3 [2])
CC(C)c1cc(F)cc(C(C)C)c1NC(=O)NS(=O)(=O)c1cc(CN2CCCC2)n(C)n1 [Example 81, N-((4-Fluoro-2,6-diisopropylphenyl)carbamoyl)-1-methyl-5-(pyrrolidin-1-ylmethyl)-1H-pyrazole-3-sulfonamide] | < 400 nM | 160 to 640 nM
CC(c1cc(S(=O)(=O)NC(=O)Nc2c3c(cc4c2CCC4)CCC3)nn1C)N(C)C (single isomer, unassigned; enantiomer 2) [Example 70, 5-(1-(Dimethylamino)ethyl)-N-((1,2,3,5,6,7-hexahydro-s-indacen-4-yl)carbamoyl)-1-methyl-1H-pyrazole-3-sulfonamide, Enantiomer 2] | < 400 nM | < 40 nM
CCN(CC)Cc1cc(S(=O)(=O)NC(=O)Nc2c3c(cc4c2CCC4)CCC3)nn1C [Example 82, 5-((Diethylamino)methyl)-N-((1,2,3,5,6,7-hexahydro-s-indacen-4-yl)carbamoyl)-1-methyl-1H-pyrazole-3-sulfonamide, Sodium Salt] | 800 to 1600 nM | 40 to 160 nM
CC(C)n1nc(S(=O)(=O)NC(=O)Nc2c3c(cc4c2CCC4)CCC3)cc1CN(C)C [Example 68, 5-((Dimethylamino)methyl)-N-((1,2,3,5,6,7-hexahydro-s-indacen-4-yl)carbamoyl)-1-isopropyl-1H-pyrazole-3-sulfonamide] | 400 to 800 nM | < 40 nM
CC(C)n1nc(S(=O)(=O)NC(=O)Nc2c3c(cc4c2CCC4)CCC3)cc1CN(C)CC(F)F [Example 56, 5-(((2,2-Difluoroethyl)(methyl)amino)methyl)-N-((1,2,3,5,6,7-hexahydro-s-indacen-4-yl)carbamoyl)-1-isopropyl-1H-pyrazole-3-sulfonamide, Sodium Salt] | 3200 to 10000 nM | 40 to 160 nM
CN(CCO)Cc1cc(S(=O)(=O)NC(=O)Nc2c3c(cc4c2CCC4)CCC3)nn1C [Example 117, N-((1,2,3,5,6,7-Hexahydro-s-indacen-4-yl)carbamoyl)-5-(((2-hydroxyethyl)(methyl)amino)methyl)-1-methyl-1H-pyrazole-3-sulfonamide] | < 400 nM | 40 to 160 nM
CNCc1cc(S(=O)(=O)NC(=O)Nc2c3c(cc4c2CCC4)CCC3)nn1C1CC1 [Example 183] | 400 to 800 nM | 40 to 160 nM
CC(C)c1cc(F)cc(-c2ccccc2)c1NC(=O)NS(=O)(=O)c1cc(CN(C)C)n(C(C)C)n1 [Example 39, 5-((Dimethylamino)methyl)-N-((5-fluoro-3-isopropyl-[1,1′-biphenyl]-2-yl)carbamoyl)-1-isopropyl-1-H-pyrazole-3-sulfonamide] | 1600 to 3200 nM | 640 to 2560 nM
CCC(c1cc(S(=O)(=O)NC(=O)Nc2c(-c3ccnc(OC)c3)ccc3c2CCC3)nn1C(C)C)N(C)C (stereo not drawn) [Example 180] | < 400 nM | 40 to 160 nM
CCC(c1cc(S(=O)(=O)NC(=O)Nc2c3c(cc4c2CCC4)CCC3)nn1C)N(C)C (stereo not drawn) [Example 74, 5-(1-(Dimethylamino)propyl)-N-((1,2,3,5,6,7-hexahydro-s-indacen-4-yl)carbamoyl)-1-methyl-1H-pyrazole-3-sulfonamide] | < 400 nM | < 40 nM
CC(C)(C)n1nc(S(=O)(=O)NC(=O)Nc2c3c(cc4c2CCC4)CCC3)cc1CN1CCC1 [Example 38, 5-(Azetidin-1-ylmethyl)-1-(tert-butyl)-N-((1,2,3,5,6,7-hexahydro-s-indacen-4-yl)carbamoyl)-1H-pyrazole-3-sulfonamide] | 1600 to 3200 nM | 40 to 160 nM
